Paper PMC10056348, “Photocaged Histone Deacetylase Inhibitors as Prodrugs in Targeted Cancer Therapy” (Pharmaceuticals, 2023)
Values belong to the compound of their own block, whether it stands above or below them.

Assays:
[1] = set-up: method as in PMID 26603496; conditions: cited from earlier work
rodent cells = test system: rodent cells; set-up: method as in PMID 26603496; conditions: cited from earlier work
[2] = Photo-uncaging efficiency (HPLC after irradiation at 365 nm); format: physicochemical; conditions: 10 min
Procedure: Photolysis (photo-uncaging) of photocaged HDACi prodrugs was performed at room temperature using a UVP CL-1000 Crosslinker (Analytik Jena GmbH, Jena, Germany) equipped with five UV-A tubes (F8T5/BL368; λmax = 365 nm; Analytik Jena GmbH, Jena, Germany). Hereafter, this entire experimental set-up will be referred to as the “UV reactor”.
For the photo-uncaging efficiency testing, 10 µL of a 1.0 mM DMSO solution of the respective compound was irradiated for 10 min using the UV reactor described above. Subsequently, 90 µL acetonitrile was added, and the samples were analyzed via HPLC. The amount of photo-cleaved HDACi was determined by comparison with a five-point calibration curve of the respective parent inhibitor, using HPLC/UV detection at an appropriate wavelength (area under the curve; area mAu*min).
2. Photouncaging Experiments
Photolysis (photouncaging) of photocaged HDACi prodrugs was performed at room temperature using an UVP CL-1000 Crosslinker (Analytik Jena GmbH, Jena, Germany) equipped with five UV-A tubes (F8T5/BL368; λmax = 365 nm; Analytik Jena GmbH, Jena, Germany). Hereafter, this entire experimental set-up will be referred to as the "UV-reactor".
For the deprotection experiments 10 µL of a 1.0 mM DMSO-solution of the respective compound were irradiated for 10 min using the UV-reactor described above. Subsequently, 90 µL acetonitrile were added and the samples were analyzed via HPLC. The amount of photo-cleaved HDACi was determined by comparison with a five-point calibration curve of the respective parent inhibitor using HPLC/UV detection at an appropriate wavelength (area under the curve; area mAu*min).
Figure S5. Calibration curve of DDK-137 (I).

[3] = test system: human ovarian cancer cell line A2780; set-up: method as in PMID 31762274; conditions: cited from earlier work
[4] = test system: human squamous carcinoma cell line Cal27; set-up: method as in PMID 31762274; conditions: cited from earlier work
[5] = test system: cisplatin-resistant Cal27CisR cells; set-up: method as in PMID 31762274; conditions: cited from earlier work

SMILES: O=C(/C=C/c1cccc(S(=O)(=O)Nc2ccccc2)c1)NO [belinostat]
mutagenic activity in the Ames test [1]: mutagenic activity
chromosomal aberrations in rodent cells (rodent cells): provoke chromosomal aberrations

SMILES: O=C(CCCCCCC(=O)Nc1ccccc1)NO [Vorinostat]
mutagenic activity in the Ames test [1]: mutagenic activity
chromosomal aberrations in rodent cells (rodent cells): provoke chromosomal aberrations

behaviour under treatment with light ([2]; DMSO): decomposed
concentration of photo-released parent inhibitor after irradiation ([2]; initial concentration 100 µM): not detected
melting point: 159 to 161 °C
SMILES: COc1cc(COC(=O)Nc2ccccc2NC(=O)c2ccc(CN(CC(=O)NCc3ccccc3)C(=O)c3ccc(N(C)C)cc3)cc2)c([N+](=O)[O-])cc1OC [pc-II, 4,5-Dimethoxy-2-nitrobenzyl-{2-[4-({N-[2-(benzylamino)-2-oxoethyl]-4-(dimethylamino)benzamido}methyl)benzamido]phenyl}carbamate]
yield of photo-released parent inhibitor ([2]; DMSO, HPLC with calibration curve): did not release the parent HDACi II in significant quantities

SMILES: CN(C)c1ccc(C(=O)N(CC(=O)NCc2ccccc2)Cc2ccc(C(=O)Nc3ccccc3N)cc2)cc1 [II, N-{4-[(2-aminophenyl)-carbamoyl]-benzyl}-N-[2-(benzylamino)-2-oxoethyl]-4-(dimethylamino)-benzamide]
antiproliferative effects in A2780 [3]: promising antiproliferative effects
antiproliferative effects in Cal27 [4]: promising antiproliferative effects
reversal of cisplatin resistance [5]: capable of reversing cisplatin resistance

SMILES: Cc1[nH]c2ccccc2c1CCNCc1ccc(/C=C/C(=O)NO)cc1 [panobinostat]
mutagenic activity in the Ames test [1]: mutagenic activity
chromosomal aberrations in rodent cells (rodent cells): provoke chromosomal aberrations
